Test results as given in the kinase profiling compilation of Christmann-Franck et al. (2016).

Columns and labels:
Assay in all cases: KINOMEscan competition binding
Conditions in all cases: compound 10.0 µM
[1] = target: PHKG2 (human) (UniProt P15735)
[2] = target: STK35 (human) (UniProt Q8TDR2)
[3] = target: FGFR2 (human) (UniProt P21802)
[4] = target: SBK1 (human) (UniProt Q52WX2)
[5] = target: ACVR2B (human) (UniProt Q13705)
[6] = target: MAP3K3 (human) (UniProt Q99759)
[7] = target: PDGFRB (human) (UniProt P09619)
[8] = system: PIK3CA (human), P42336 [M1043I]
[9] = target: ITK (human) (UniProt Q08881)
[10] = target: ACVR1 (human) (UniProt Q04771)
[11] = target: RPS6KA4 KD1 (human) (UniProt O75676)
[12] = target: ERBB3 (human) (UniProt P21860)
[13] = target: SYK (human) (UniProt P43405)
[14] = system: CPK1 (P.falciparum)
[15] = target: NEK6 (human) (UniProt Q9HC98)
[16] = target: NLK (human) (UniProt Q9UBE8)
[17] = target: MYLK (human) (UniProt Q15746)
[18] = target: MAPK6 (human) (UniProt Q16659)
[19] = target: MAP2K2 (human) (UniProt P36507)
[20] = target: CDKL5 (human) (UniProt O76039)
[21] = system: KIT (human), P10721 [D816H]
[22] = target: ROCK2 (human) (UniProt O75116)
[23] = target: MAPK1 (human) (UniProt P28482)
[24] = target: CAMK2A (human) (UniProt Q9UQM7)
[25] = target: MAPK12 (human) (UniProt P53778)
[26] = target: CASK (human) (UniProt O14936)
[27] = target: TEK (human) (UniProt Q02763)
[28] = target: MAP3K15 (human) (UniProt Q6ZN16)
[29] = target: PRKG1 (human) (UniProt Q13976)
[30] = target: CSNK1D (human) (UniProt P48730)
[31] = target: PRKCH (human) (UniProt P24723)
[32] = target: NIM1 (human) (UniProt Q8IY84)
[33] = target: MERTK (human) (UniProt Q12866)
[34] = target: MARK3 (human) (UniProt P27448)
[35] = target: PDPK1 (human) (UniProt O15530)
[36] = target: CHUK (human) (UniProt O15111)
[37] = target: WEE1 (human) (UniProt P30291)
[38] = target: CDKL3 (human) (UniProt Q8IVW4)
[39] = system: FGFR3 (human), P22607 [G697C]
[40] = target: JAK3 JH1 catalytic (human) (UniProt P52333)

Chain of NIM1 (human) (Q8IY84 whole entry, looked up): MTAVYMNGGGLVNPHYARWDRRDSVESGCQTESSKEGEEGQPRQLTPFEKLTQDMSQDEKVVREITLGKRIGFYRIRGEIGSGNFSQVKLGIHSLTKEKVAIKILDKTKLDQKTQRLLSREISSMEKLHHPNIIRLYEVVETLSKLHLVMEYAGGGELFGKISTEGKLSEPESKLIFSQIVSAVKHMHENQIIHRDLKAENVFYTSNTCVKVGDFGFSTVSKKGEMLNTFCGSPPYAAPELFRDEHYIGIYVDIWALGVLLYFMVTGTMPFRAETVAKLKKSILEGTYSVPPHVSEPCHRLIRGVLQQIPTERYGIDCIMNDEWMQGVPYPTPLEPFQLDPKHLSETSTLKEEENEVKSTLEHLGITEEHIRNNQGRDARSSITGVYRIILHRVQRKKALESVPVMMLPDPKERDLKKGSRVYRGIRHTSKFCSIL
Chain of KIT (human), P10721 [D816H] (P10721 whole entry D816H, looked up): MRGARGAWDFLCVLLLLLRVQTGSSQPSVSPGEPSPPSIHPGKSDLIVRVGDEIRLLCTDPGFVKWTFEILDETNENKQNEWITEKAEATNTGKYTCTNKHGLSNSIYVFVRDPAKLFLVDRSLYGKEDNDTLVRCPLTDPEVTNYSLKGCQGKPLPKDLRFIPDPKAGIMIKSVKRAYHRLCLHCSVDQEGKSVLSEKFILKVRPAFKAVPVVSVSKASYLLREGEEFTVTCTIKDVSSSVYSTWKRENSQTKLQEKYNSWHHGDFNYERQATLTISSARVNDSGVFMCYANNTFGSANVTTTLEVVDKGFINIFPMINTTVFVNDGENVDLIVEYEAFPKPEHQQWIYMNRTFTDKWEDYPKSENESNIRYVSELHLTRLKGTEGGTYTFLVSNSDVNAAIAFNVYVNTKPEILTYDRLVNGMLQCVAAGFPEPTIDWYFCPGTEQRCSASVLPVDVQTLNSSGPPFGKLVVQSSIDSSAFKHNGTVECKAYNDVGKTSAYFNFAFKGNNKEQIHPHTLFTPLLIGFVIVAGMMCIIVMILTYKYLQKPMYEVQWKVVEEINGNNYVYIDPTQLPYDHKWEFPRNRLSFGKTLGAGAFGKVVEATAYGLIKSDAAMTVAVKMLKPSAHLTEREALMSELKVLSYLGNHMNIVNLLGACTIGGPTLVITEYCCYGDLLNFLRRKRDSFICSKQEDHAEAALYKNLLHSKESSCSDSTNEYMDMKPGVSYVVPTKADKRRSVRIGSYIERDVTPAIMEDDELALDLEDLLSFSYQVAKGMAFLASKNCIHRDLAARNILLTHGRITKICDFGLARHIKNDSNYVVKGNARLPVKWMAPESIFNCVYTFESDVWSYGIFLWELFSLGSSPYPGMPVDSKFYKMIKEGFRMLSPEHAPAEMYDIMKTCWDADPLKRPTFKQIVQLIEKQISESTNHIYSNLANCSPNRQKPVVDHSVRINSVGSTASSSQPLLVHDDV
Chain of ITK (human) (Q08881 whole entry, looked up): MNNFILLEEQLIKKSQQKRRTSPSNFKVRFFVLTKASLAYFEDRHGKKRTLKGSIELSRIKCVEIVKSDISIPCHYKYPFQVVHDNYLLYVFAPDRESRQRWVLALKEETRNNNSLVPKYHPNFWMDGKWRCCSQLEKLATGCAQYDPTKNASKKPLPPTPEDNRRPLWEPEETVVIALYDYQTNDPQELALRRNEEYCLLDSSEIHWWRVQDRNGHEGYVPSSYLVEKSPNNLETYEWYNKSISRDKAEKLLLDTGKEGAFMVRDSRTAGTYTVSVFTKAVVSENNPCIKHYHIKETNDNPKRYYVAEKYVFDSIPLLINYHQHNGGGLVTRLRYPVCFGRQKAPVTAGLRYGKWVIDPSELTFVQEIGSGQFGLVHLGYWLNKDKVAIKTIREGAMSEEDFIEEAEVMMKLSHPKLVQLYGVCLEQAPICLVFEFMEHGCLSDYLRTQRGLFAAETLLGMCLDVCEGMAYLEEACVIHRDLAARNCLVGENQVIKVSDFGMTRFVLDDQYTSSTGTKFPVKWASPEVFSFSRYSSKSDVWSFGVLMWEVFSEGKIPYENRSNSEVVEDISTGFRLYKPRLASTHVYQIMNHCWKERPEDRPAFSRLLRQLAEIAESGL
Chain of CHUK (human) (O15111 whole entry, looked up): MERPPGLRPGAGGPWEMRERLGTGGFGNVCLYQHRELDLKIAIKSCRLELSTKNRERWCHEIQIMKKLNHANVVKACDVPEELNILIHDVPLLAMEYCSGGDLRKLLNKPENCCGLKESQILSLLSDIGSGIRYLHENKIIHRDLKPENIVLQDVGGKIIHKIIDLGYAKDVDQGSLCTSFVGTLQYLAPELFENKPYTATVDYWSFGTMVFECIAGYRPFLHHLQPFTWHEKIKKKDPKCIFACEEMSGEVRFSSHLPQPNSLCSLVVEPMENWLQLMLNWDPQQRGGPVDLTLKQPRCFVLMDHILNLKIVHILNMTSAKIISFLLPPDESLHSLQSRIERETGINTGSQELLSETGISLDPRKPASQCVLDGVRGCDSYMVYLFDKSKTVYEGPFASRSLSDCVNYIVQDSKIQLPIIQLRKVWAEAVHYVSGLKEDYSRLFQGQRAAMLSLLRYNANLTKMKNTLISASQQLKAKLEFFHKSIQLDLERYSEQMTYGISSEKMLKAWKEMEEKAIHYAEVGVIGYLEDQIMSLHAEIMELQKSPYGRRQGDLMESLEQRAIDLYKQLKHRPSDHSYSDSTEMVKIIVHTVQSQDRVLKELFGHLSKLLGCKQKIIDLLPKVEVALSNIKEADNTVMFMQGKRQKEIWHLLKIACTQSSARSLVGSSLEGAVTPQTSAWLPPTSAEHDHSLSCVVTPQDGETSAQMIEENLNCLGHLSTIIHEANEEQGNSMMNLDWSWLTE
Chain of RPS6KA4 KD1 (human) (O75676 whole entry, looked up): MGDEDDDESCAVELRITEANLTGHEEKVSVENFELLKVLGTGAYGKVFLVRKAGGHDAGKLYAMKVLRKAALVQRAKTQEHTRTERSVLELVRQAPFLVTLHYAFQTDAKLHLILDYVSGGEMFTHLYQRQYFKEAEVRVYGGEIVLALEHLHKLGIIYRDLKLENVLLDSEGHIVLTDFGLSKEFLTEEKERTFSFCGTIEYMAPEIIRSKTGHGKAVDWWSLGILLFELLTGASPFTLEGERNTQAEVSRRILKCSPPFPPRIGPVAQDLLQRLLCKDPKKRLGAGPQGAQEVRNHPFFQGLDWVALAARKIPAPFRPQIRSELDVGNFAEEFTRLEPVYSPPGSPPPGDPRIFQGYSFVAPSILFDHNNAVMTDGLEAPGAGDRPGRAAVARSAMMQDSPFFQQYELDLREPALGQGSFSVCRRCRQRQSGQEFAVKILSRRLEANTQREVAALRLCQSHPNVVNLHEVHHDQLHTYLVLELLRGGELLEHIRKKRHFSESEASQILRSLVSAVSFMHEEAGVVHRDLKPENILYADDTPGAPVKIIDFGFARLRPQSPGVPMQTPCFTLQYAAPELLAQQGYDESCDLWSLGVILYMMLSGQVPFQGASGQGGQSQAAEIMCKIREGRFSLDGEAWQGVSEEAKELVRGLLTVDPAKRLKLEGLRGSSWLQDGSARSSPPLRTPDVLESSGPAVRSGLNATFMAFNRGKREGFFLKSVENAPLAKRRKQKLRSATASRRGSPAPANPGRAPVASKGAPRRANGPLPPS
Chain of MARK3 (human) (P27448 whole entry, looked up): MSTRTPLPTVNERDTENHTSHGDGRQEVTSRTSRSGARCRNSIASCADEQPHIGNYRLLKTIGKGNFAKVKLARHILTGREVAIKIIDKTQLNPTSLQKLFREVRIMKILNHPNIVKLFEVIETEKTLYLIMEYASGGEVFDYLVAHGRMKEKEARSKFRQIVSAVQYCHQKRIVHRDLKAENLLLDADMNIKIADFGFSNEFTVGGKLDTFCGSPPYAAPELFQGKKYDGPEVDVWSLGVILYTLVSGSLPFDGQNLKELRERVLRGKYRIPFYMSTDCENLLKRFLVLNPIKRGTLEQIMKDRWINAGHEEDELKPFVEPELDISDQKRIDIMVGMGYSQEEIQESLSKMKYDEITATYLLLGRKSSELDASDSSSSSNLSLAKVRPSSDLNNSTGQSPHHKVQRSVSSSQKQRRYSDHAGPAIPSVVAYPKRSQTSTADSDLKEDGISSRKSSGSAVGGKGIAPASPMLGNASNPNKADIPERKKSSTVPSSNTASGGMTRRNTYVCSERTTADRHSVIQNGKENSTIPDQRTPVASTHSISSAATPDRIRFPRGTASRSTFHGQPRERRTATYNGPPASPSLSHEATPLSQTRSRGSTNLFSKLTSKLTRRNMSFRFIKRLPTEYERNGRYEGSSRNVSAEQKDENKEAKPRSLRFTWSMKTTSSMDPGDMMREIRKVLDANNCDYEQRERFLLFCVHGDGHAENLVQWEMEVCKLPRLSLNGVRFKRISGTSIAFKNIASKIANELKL
Chain of CSNK1D (human) (P48730 whole entry, looked up): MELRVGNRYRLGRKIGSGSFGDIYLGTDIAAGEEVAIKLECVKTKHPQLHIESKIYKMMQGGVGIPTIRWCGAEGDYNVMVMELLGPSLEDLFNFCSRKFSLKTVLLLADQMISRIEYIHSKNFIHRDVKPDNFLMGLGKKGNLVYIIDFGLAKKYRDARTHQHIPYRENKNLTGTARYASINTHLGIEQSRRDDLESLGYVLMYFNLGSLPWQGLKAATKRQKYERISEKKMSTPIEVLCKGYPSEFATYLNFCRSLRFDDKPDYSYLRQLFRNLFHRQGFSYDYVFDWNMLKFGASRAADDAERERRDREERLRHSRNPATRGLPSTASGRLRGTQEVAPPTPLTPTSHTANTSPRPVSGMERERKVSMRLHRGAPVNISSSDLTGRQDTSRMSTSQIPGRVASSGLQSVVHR
Chain of NEK6 (human) (Q9HC98 whole entry, looked up): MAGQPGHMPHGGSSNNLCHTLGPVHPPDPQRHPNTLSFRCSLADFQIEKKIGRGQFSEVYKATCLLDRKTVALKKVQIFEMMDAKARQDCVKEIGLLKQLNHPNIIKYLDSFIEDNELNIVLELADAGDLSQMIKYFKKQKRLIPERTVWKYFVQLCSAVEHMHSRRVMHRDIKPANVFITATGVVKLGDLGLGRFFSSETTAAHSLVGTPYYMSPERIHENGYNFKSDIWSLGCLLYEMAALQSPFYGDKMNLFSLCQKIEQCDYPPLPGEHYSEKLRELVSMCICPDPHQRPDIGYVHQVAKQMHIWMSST

Row | Structure (SMILES) | kinase still bound, per cent of control [1] [%] | kinase still bound, per cent of control [2] [%] | kinase still bound, per cent of control [3] [%] | kinase still bound, per cent of control [4] [%] | kinase still bound, per cent of control [5] [%] | kinase still bound, per cent of control [6] [%] | kinase still bound, per cent of control [7] [%] | kinase still bound, per cent of control [8] [%] | kinase still bound, per cent of control [9] [%] | kinase still bound, per cent of control [10] [%] | kinase still bound, per cent of control [11] [%] | kinase still bound, per cent of control [12] [%] | kinase still bound, per cent of control [14] [%] | kinase still bound, per cent of control [16] [%] | kinase still bound, per cent of control [17] [%] | kinase still bound, per cent of control [18] [%] | kinase still bound, per cent of control [19] [%] | kinase still bound, per cent of control [20] [%] | kinase still bound, per cent of control [21] [%] | kinase still bound, per cent of control [22] [%] | other results
1 | CC1=C(C(=O)Nc2cc3cn[nH]c3cc2F)C(c2ccc(C(F)(F)F)cc2)CC(=O)N1 (stereo unspecified) | 92 | 96 | 95 | 78 | 96 | 82 | 70 | 93 | 74 | 100 | 98 | 92 | 82 | 92 | 75 | 98 | 64 | 45 | 69 | 0.1 | kinase still bound, per cent of control [13]: 100%; kinase still bound, per cent of control [15]: 70%; kinase still bound, per cent of control [23]: 50%; kinase still bound, per cent of control [24]: 100%; kinase still bound, per cent of control [25]: 79%; kinase still bound, per cent of control [26]: 88%; kinase still bound, per cent of control [27]: 83%; kinase still bound, per cent of control [28]: 77%; kinase still bound, per cent of control [29]: 15%; kinase still bound, per cent of control [30]: 92%; kinase still bound, per cent of control [31]: 35%; kinase still bound, per cent of control [32]: 86%; kinase still bound, per cent of control [33]: 91%; kinase still bound, per cent of control [34]: 100%; kinase still bound, per cent of control [35]: 100%; kinase still bound, per cent of control [36]: 100%; kinase still bound, per cent of control [37]: 94%; kinase still bound, per cent of control [38]: 78%; kinase still bound, per cent of control [39]: 84%
2 | CCN(CCO)CCCOc1ccc2c(Nc3cc(CC(=O)Nc4cccc(F)c4)[nH]n3)ncnc2c1 | 81 | 85 | 80 | 100 | 100 | 70 | 0 | 100 | 96 | 81 | 73 | 35 | 63 | 100 | 80 | 100 | 21 | 50 | 34 | 66 | kinase still bound, per cent of control [40]: 87%; kinase still bound, per cent of control [23]: 100%; kinase still bound, per cent of control [24]: 78%; kinase still bound, per cent of control [25]: 89%; kinase still bound, per cent of control [26]: 88%; kinase still bound, per cent of control [27]: 13%; kinase still bound, per cent of control [28]: 100%; kinase still bound, per cent of control [30]: 71%; kinase still bound, per cent of control [31]: 100%; kinase still bound, per cent of control [32]: 97%; kinase still bound, per cent of control [33]: 77%; kinase still bound, per cent of control [34]: 88%; kinase still bound, per cent of control [35]: 100%; kinase still bound, per cent of control [36]: 100%; kinase still bound, per cent of control [37]: 100%; kinase still bound, per cent of control [38]: 99%; kinase still bound, per cent of control [39]: 100%
